Results on one compound are retold here after patent publication US10570099B2, “Salts of an epidermal growth factor receptor kinase inhibitor” (Celgene CAR LLC, priority 2012, dated 2020).

The nature of series [1]: 1 week stability of primary screen salts at 40° C./75% RH and 80° C. (open vials, XRPD). Type of series: physicochemical. Here is the method:
(open vials). TGA was carried out after the stability studies for samples containing sufficient material.

Series [2] in a line: Intrinsic dissolution of compressed discs. Type of series: physicochemical. Conditions: early time points. Here is the method:
A Sotax AT7 dissolution bath (USP 2, EP 2 apparatus) was used for the dissolution study in which paddles were used to stir the media. All tests were carried out at 37° C. and a paddle speed of 100 rpm.
(§1) Approximately 100-120 mg of each form was compressed into discs by placing the material into a die (diameter: 13 mm) and compressing the die under 5 tons of pressure in a hydraulic press for ca. 2 minutes. A Sotax AT7 (conformed to EP2 and USP2) dissolution instrument was used containing paddles to stir the media at 100 rpm. Dissolution media of pH 3 (1% SDS) and pH 4.5 (1% SDS) were prepared using citrate/phosphate buffer. All materials were tested in 750 ml of the buffer medium. Discs were added at time=0 seconds and allowed to sink to the bottom of the dissolution vessel before stirring began. ca. 1 ml aliquots of media were extracted from the dissolution vessels at times 1, 5, 10, 15, 30, 60, 120, 240 minutes and 24 hours, and tested for dissolved salt concentration by HPLC-UV. The dissolution tests were carried out in duplicate. For both dissolution media, the peak areas for the initial time points (up to 15 minutes), fell below the limit of quantification, however, when plotting Dissolution rate vs. time, the steepest part of the curve occurs during these early time points.
as §1, with “material” for “each form”, “API” for “dissolved salt”

The nature of series [3]: Administration to healthy volunteers (single dose PK study). Particulars: 50 mg dose, Regimen B. Type of series: in vivo, healthy male subjects. From the text: The primary objective of the study is to compare the compound 1 pharmacokinetic (PK) profiles of single doses of Form I monohydrobromide formulations with that of the compound 1 free base in healthy adult males.
This is a single centre non-randomised, open-label, single dose study in healthy male subjects. Subjects will be screened for eligibility to participate in the study up to 28 days before dosing. The subjects will be admitted to the clinical unit at approximately 09:00 in the morning on the day prior to dosing (Day-1) and will remain on site until 24 h after each dose. Each subject will attend a follow-up visit 4 to 6 days after the final dose.
One group of 12 subjects will be dosed in an effort to obtain the data described above. Each subject will receive the following formulations in a crossover investigation. Dosing will be separated by at least 7 days. • Regimen A: 150 mg compound 1 (free base) capsule • Regimen B: 50 mg as active compound 2 (Form I HBr) tablet formulation • Regimen C: ≤150 mg as active compound 2 (Form I HBr) tablet formulation
All formulations will be dosed in the morning, following an overnight fast. Subjects will be allowed water up to 2 h before the scheduled dosing time and will be provided with 240 mL of water at 2 h post-dose. […]
Plasma concentration data will be tabulated and plotted for each subject for whom concentrations are quantifiable.

Series [4] is described as follows: Dog PK Study 2 (gastric pH adjustment, food effect). Particulars: dogs, oral, 30 mg/kg QD, both low and high gastric pH conditions. Type of series: in vivo, beagle dogs. Here is the method: Compound 1 free base and compound 2, as the Form I monohydrobromide (HBr) salt, were evaluated in a cross-over dog PK study in which male dogs were pre-treated with either pentagastrin (to decrease gastric pH) or famotidine (to increase gastric pH) prior to oral dosing to control gastric pH. In addition, the effect of food on the systemic exposure to compound 1 was also evaluated in dogs receiving Form I HBr with pentagastrin pre-treatment. Compound 1 free base capsule consisted of compound 1 free base in Vitamin E TPGS and PEG 400 filled into a capsule. The Form I hydrobromide salt capsule consisted of Form I HBr alone filled into a capsule.
There was a minimum 6-day washout between dosing. On the day of dosing under fed condition, dogs were given 60 gram of a high fat diet (Harlan Teklad 2027C) and allowed to consume all of the food within 15-20 minutes. The animals were given a 10-minute rest period and then the capsule doses were administered. Plasma samples were collected at pre-dose and 0.5, 1, 2, 4, 6, 8, 12 and 24 hours post dose.

Series [5] is described as follows: 1 week stability study (XRPD and HPLC). Format: physicochemical. Particulars: 1 week, listed as hydrobromide salt. Here is the method: (§2) Resulting solids were analysed by XRPD and HPLC to establish if any changes had occurred.
as §2
The resulting solids were analysed by XRPD and HPLC to establish if any changes had occurred.

Setting [6] is: 40° C./75% RH, closed (crimped) vial.

As for `Br.C=CC(=O)Nc1cccc(Nc2nc(Nc3ccc(N4CCN(C(C)=O)CC4)cc3OC)ncc2C(F)(F)F)c1` [Form I hydrobromide salt], the “Stability 40° C./75% RH (open conditions)” value in series [1] is listed as “No form change, slight”. In addition, in series [1], the “Stability 80° C. (open conditions)” value is listed as “No Form change”. Besides, the intrinsic dissolution value entry is given as “approximately 0.35 mg/cm^2/min” in series [2] (pH 3.0 (1% SDS), tablet 1); “approximately 0.35 mg/cm^2/min” in series [2] (pH 3.0 (1% SDS), tablet 2); “approximately 0.27 mg/cm^2/min” in series [2] (pH 4.5 (1% SDS), tablet 1); around 0.28 mg/cm^2/min in series [2] (pH 4.5 (1% SDS), tablet 2). Also, the patient-to-patient variability entry in series [3] was “less patient-to-patient variability”. Besides, the “compound 1 exposure compared to the free base form” value in series [4] is “significantly higher”. The “HPLC purity after storage” value in series [5] (setting [6]) is 97.2%; in series [5] (40° C./75% RH, open vial), 97.2%; in series [5] (80° C., open vial), 97.1%. Moreover, the XRPD after storage entry was “No polymorphic form changes observed” in series [5] (setting [6]); “No polymorphic form changes observed” in series [5] (40° C./75% RH, open vial); “No polymorphic form changes observed” in series [5] (80° C., open vial).
